Measurements from patent publication US11400058B2, “Intravenous formulations of coenzyme Q10 (CoQ10) and methods of use thereof” (Berg LLC, priority 2010, dated 2022).
Marks after values point to notes of the source that are not given here.

Experiment: 4-week repeat-dose toxicology study in rats with 2-week recovery (Study 20000328)
[1] = 125 mg/kg M, end of dosing, animals affected
[2] = 125 mg/kg M, end of dosing, animals of 10
[3] = 125 mg/kg M, end of recovery, animals of 5
[4] = 250 mg/kg F, end of dosing, animals of 10

For `COC1=C(OC)C(=O)C(C/C=C(\C)CC/C=C(\C)CC/C=C(\C)CC/C=C(\C)CC/C=C(\C)CC/C=C(\C)CC/C=C(\C)CC/C=C(\C)CC/C=C(\C)CCC=C(C)C)=C(C)C1=O` [CoQ10, Coenzyme Q10], the Erythrocytes (125 mg/kg M, end of dosing) was 7.59* 10^6/cmm, the “Food Consumption, percent difference from controls” value (125 mg/kg M, end of dosing) was −9.2* % and the GGT (125 mg/kg M, end of dosing) was 0.09 IU/L. For the same compound, the Hematocrit (125 mg/kg M, end of dosing) was 41.6* %, the Hemoglobin (125 mg/kg M, end of dosing) was 14.3 g/dL and the Leukocytes (125 mg/kg M, end of dosing) was 11.03 10^3/cmm. For the same compound, the “Liver weight (absolute), percent difference from controls” value (125 mg/kg M, end of dosing) was −7.2%, the Lymphocytes (125 mg/kg M, end of dosing) was 8.70* 10^3/cmm and the Neutrophils (125 mg/kg M, end of dosing) was 1.71 10^3/cmm. For the same compound, the “Spleen weight (absolute), percent difference from controls” value (125 mg/kg M, end of dosing) was −23.4%, the “Injection Site Mononuclear Cell Infiltration” value [1] was 1 and the “Injection Site Mononuclear Cell Infiltration, Marked” value [1] was 1. The “Injection Site Mononuclear Cell Infiltration, Mild” value [1] was 0, the “Injection Site Mononuclear Cell Infiltration, Minimal” value [1] was 0 and the “Injection Site Mononuclear Cell Infiltration, Moderate” value [1] was 0. The “Bone Marrow, Sternum Hyperplasia” value [2] was 2, the “Bone Marrow, Sternum Hyperplasia, Mild” value [2] was 0 and the “Bone Marrow, Sternum Hyperplasia, Minimal” value [2] was 2. The “Gross Pathology: Enlarged Pancreatic Lymph Nodes” value [2] was 1, the “Gross Pathology: Pale Adrenal” value [2] was 0 and the “Gross Pathology: Pale Liver” value [2] was 9. For the same compound, the “Gross Pathology: Pale Lymph Nodes” value [2] was 4, the “Gross Pathology: Pale Pituitary” value [2] was 0 and the “Gross Pathology: Pale SQ Skin” value [2] was 1. The “Liver Focal Necrosis” value [2] was 0, the “Liver Focal Necrosis, Minimal” value [2] was 0 and the “Liver Histiocytic Infiltration” value [2] was 6. For the same compound, the “Liver Histiocytic Infiltration, Mild” value [2] was 3, the “Liver Histiocytic Infiltration, Minimal” value [2] was 3 and the “Liver Histiocytic Infiltration, Moderate” value [2] was 0. For the same compound, the “Liver Vacuolation” value [2] was 8, the “Liver Vacuolation, Mild” value [2] was 4 and the “Liver Vacuolation, Minimal” value [2] was 4. For the same compound, the “Lymph Node, Man. Histiocytic Infiltration” value [2] was 7, the “Lymph Node, Man. Histiocytic Infiltration, Mild” value [2] was 4 and the “Lymph Node, Man. Histiocytic Infiltration, Minimal” value [2] was 3. The “Lymph Node, Man. Histiocytic Infiltration, Moderate” value [2] was 0, the “Lymph Node, Mes. Histiocytic Infiltration” value [2] was 10 and the “Lymph Node, Mes. Histiocytic Infiltration, Mild” value [2] was 6. For the same compound, the “Lymph Node, Mes. Histiocytic Infiltration, Minimal” value [2] was 4, the “Lymph Node, Mes. Histiocytic Infiltration, Moderate” value [2] was 0 and the “Skin, Dermis Histiocytic Infiltration” value [2] was 1. The “Skin, Dermis Histiocytic Infiltration, Marked” value [2] was 1, the “Skin, Dermis Histiocytic Infiltration, Mild” value [2] was 0 and the “Skin, Dermis Histiocytic Infiltration, Moderate” value [2] was 0. For the same compound, the “Skin, SQ Histiocytic Infiltration” value [2] was 0, the “Skin, SQ Histiocytic Infiltration, Mild” value [2] was 0 and the “Spleen Histiocytic Infiltration” value [2] was 8. For the same compound, the “Spleen Histiocytic Infiltration, Marked” value [2] was 0, the “Spleen Histiocytic Infiltration, Mild” value [2] was 5 and the “Spleen Histiocytic Infiltration, Moderate” value [2] was 3. The ALT (125 mg/kg M, end of recovery) was 27 IU/L, the APPT (125 mg/kg M, end of recovery) was 15.9* seconds and the AST (125 mg/kg M, end of recovery) was 94 IU/L. The “Body Weight, percent difference from controls” value (125 mg/kg M, end of recovery) was −2.2%, the “Food Consumption, percent difference from controls” value (125 mg/kg M, end of recovery) was “+1.2%” and the GGT (125 mg/kg M, end of recovery) was 0.00 IU/L. The “Liver weight (absolute), percent difference from controls” value (125 mg/kg M, end of recovery) was −2.5%, the “Spleen weight (absolute), percent difference from controls” value (125 mg/kg M, end of recovery) was “+5.9%” and the “Adrenal Gland Vacuolation” value [3] was 5. For the same compound, the “Adrenal Gland Vacuolation, Marked” value [3] was 0, the “Adrenal Gland Vacuolation, Mild” value [3] was 2 and the “Adrenal Gland Vacuolation, Minimal” value [3] was 0. The “Adrenal Gland Vacuolation, Moderate” value [3] was 3, the “Gross Pathology: Enlarged Spleen” value [3] was 1 and the “Gross Pathology: Pale Iliac Lymph Node” value [3] was 2. The “Gross Pathology: Pale Liver” value [3] was 5, the “Gross Pathology: Pale Pancreatic Lymph Node” value [3] was 2 and the “Liver Focal Necrosis” value [3] was 3. For the same compound, the “Liver Focal Necrosis, Mild” value [3] was 1, the “Liver Focal Necrosis, Minimal” value [3] was 2 and the “Liver Histiocytic Infiltration” value [3] was 5. For the same compound, the “Liver Histiocytic Infiltration, Mild” value [3] was 1, the “Liver Histiocytic Infiltration, Minimal” value [3] was 4 and the “Liver Histiocytic Infiltration, Moderate” value [3] was 0. The “Liver Multifocal Necrosis” value [3] was 0, the “Liver Multifocal Necrosis, Mild” value [3] was 0 and the “Liver Multifocal Necrosis, Moderate” value [3] was 0. The “Liver Vacuolation” value [3] was 5, the “Liver Vacuolation, Mild” value [3] was 4 and the “Liver Vacuolation, Minimal” value [3] was 1. The “Liver Vacuolation, Moderate” value [3] was 0, the “Lymph Node, Man. Histiocytic Infiltration” value [3] was 5 and the “Lymph Node, Man. Histiocytic Infiltration, Mild” value [3] was 2. For the same compound, the “Lymph Node, Man. Histiocytic Infiltration, Minimal” value [3] was 3, the “Lymph Node, Man. Histiocytic Infiltration, Moderate” value [3] was 0 and the “Lymph Node, Mes. Histiocytic Infiltration” value [3] was 5. The “Lymph Node, Mes. Histiocytic Infiltration, Mild” value [3] was 1, the “Lymph Node, Mes. Histiocytic Infiltration, Minimal” value [3] was 3 and the “Spleen Histiocytic Infiltration” value [3] was 3. The “Spleen Histiocytic Infiltration, Marked” value [3] was 0, the “Spleen Histiocytic Infiltration, Mild” value [3] was 1 and the “Spleen Histiocytic Infiltration, Minimal” value [3] was 2. For the same compound, the “Spleen Histiocytic Infiltration, Moderate” value [3] was 0, the “Died or Sacrificed Moribund” value (250 mg/kg F, animals of 15) was 0 and the ALT (250 mg/kg F, end of dosing) was 22 IU/L. The APPT (250 mg/kg F, end of dosing) was 14.5* seconds, the AST (250 mg/kg F, end of dosing) was 88 IU/L and the “Body Weight, percent difference from controls” value (250 mg/kg F, end of dosing) was −8.9* %. The Eosinophils (250 mg/kg F, end of dosing) was 0.10 10^3/cmm, the Erythrocytes (250 mg/kg F, end of dosing) was 6.12 10^6/cmm and the “Food Consumption, percent difference from controls” value (250 mg/kg F, end of dosing) was −18.3* %. The GGT (250 mg/kg F, end of dosing) was 0.25 IU/L, the Hematocrit (250 mg/kg F, end of dosing) was 39.2* % and the Hemoglobin (250 mg/kg F, end of dosing) was 13.2 g/dL. For the same compound, the Leukocytes (250 mg/kg F, end of dosing) was 13.15* 10^3/cmm, the “Liver weight (absolute), percent difference from controls” value (250 mg/kg F, end of dosing) was “+14.5* %” and the Lymphocytes (250 mg/kg F, end of dosing) was 10.50* 10^3/cmm. For the same compound, the Neutrophils (250 mg/kg F, end of dosing) was 1.97* 10^3/cmm, the “Spleen weight (absolute), percent difference from controls” value (250 mg/kg F, end of dosing) was “+51.0* %” and the “Adrenal Gland Vacuolation” value [4] was 10. For the same compound, the “Adrenal Gland Vacuolation, Mild” value [4] was 3, the “Adrenal Gland Vacuolation, Minimal” value [4] was 0 and the “Adrenal Gland Vacuolation, Moderate” value [4] was 7. For the same compound, the “Bone Marrow, Sternum Hyperplasia” value [4] was 0, the “Bone Marrow, Sternum Hyperplasia, Mild” value [4] was 0 and the “Bone Marrow, Sternum Hyperplasia, Minimal” value [4] was 0. For the same compound, the “Gross Pathology: Enlarged Pancreatic Lymph Nodes” value [4] was 1, the “Gross Pathology: Pale Adrenal” value [4] was 2 and the “Gross Pathology: Pale Liver” value [4] was 10. For the same compound, the “Gross Pathology: Pale Lymph Nodes” value [4] was 7, the “Gross Pathology: Pale Ovaries” value [4] was 9 and the “Gross Pathology: Pale Pituitary” value [4] was 0. The “Gross Pathology: Pale SQ Skin” value [4] was 4, the “Injection Site Mononuclear Cell Infiltration” value [4] was 10 and the “Injection Site Mononuclear Cell Infiltration, Marked” value [4] was 2. The “Injection Site Mononuclear Cell Infiltration, Mild” value [4] was 1, the “Injection Site Mononuclear Cell Infiltration, Minimal” value [4] was 0 and the “Injection Site Mononuclear Cell Infiltration, Moderate” value [4] was 7. For the same compound, the “Liver Focal Necrosis” value [4] was 0, the “Liver Focal Necrosis, Minimal” value [4] was 0 and the “Liver Histiocytic Infiltration” value [4] was 9. For the same compound, the “Liver Histiocytic Infiltration, Mild” value [4] was 5, the “Liver Histiocytic Infiltration, Minimal” value [4] was 4 and the “Liver Histiocytic Infiltration, Moderate” value [4] was 0. The “Liver Vacuolation” value [4] was 10, the “Liver Vacuolation, Mild” value [4] was 10 and the “Liver Vacuolation, Minimal” value [4] was 0. The “Lymph Node, Man. Histiocytic Infiltration” value [4] was 9, the “Lymph Node, Man. Histiocytic Infiltration, Mild” value [4] was 1 and the “Lymph Node, Man. Histiocytic Infiltration, Minimal” value [4] was 7. The “Lymph Node, Man. Histiocytic Infiltration, Moderate” value [4] was 1, the “Lymph Node, Mes. Histiocytic Infiltration” value [4] was 9 and the “Lymph Node, Mes. Histiocytic Infiltration, Mild” value [4] was 4. For the same compound, the “Lymph Node, Mes. Histiocytic Infiltration, Minimal” value [4] was 5, the “Lymph Node, Mes. Histiocytic Infiltration, Moderate” value [4] was 0 and the “Ovary Histiocytic Infiltration” value [4] was 10. For the same compound, the “Ovary Histiocytic Infiltration, Mild” value [4] was 6, the “Ovary Histiocytic Infiltration, Minimal” value [4] was 0 and the “Ovary Histiocytic Infiltration, Moderate” value [4] was 4. For the same compound, the “Skin, Dermis Histiocytic Infiltration” value [4] was 2, the “Skin, Dermis Histiocytic Infiltration, Marked” value [4] was 0 and the “Skin, Dermis Histiocytic Infiltration, Mild” value [4] was 0. The “Skin, Dermis Histiocytic Infiltration, Moderate” value [4] was 2, the “Skin, SQ Histiocytic Infiltration” value [4] was 0 and the “Skin, SQ Histiocytic Infiltration, Mild” value [4] was 0.
